The experiment has as its system castrated male Sprague Dawley rats. Description: Ventral Prostate and Seminal Vesicle Weight In Vivo Assay. Note: key: active: the non weight adjusted prostate weight was ≦40 mg or the % Inhibition prostate weight, body weight adjusted was ≧40%@2 mg/day dosage; inactive: did not meet the specified criteria defined above. The settings on record: inhibition of testosterone-enhanced prostate weight; immature castrated rats, once daily for five days, usually orally 40 mg/kg, with testosterone propionate 2 mg/kg s.c. How it is done: Ventral Prostate and Seminal Vesicle Weight In Vivo Assay
Immature (approximately 50 g) castrated male Sprague Dawley rats (Charles River) were treated once daily for five days with test compound (usually given orally at 40 mg/kg in a volume of 0.3 mL, in 30% cyclodextrin or 0.5% methylcellulose vehicle) and with testosterone propionate (given subcutaneously by injection at the nape of the neck at 2 mg/kg, in a volume of 0.1 mL in sesame oil). On the sixth day, the rats were euthanized by asphyxiation in carbon dioxide. Ventral prosatates and seminal vesicles were removed and their wet weights determined. Test compound activity was determined as the percent inhibition of testosterone-enhanced tissue weights, with a vehicle-treated control group set to zero percent and a testosterone alone-treated control group set to 100%.
Representative compounds of the present invention were tested according to the procedure described, with results as listed in Table 7 below. A test compound is listed as “active” if the non weight adjusted prostate weight was ≦40 mg or the % Inhibition prostate weight, body weight adjusted was ≧40%@2 mg/day dosage. ID50's, if determined, of ≦15 mg/day also indicated an “active” compound.

Take `CS(=O)(=O)c1ccc(Cn2c(CC(F)(F)F)nc3cc(Cl)c(Cl)cc32)cc1` [Compound 142, 5,6-Dichloro-1-(4-methanesulfonyl-benzyl)-2-(2,2,2-trifluoro-ethyl)-1H-benzoimidazole]: the outcome was inactive. In the case of `Cc1cc2nc(C(O)C(F)(F)F)[nH]c2cc1C` (stereo not shown) [Compound 111, 1-(5,6-Dimethyl-1H-benzoimidazol-2-yl-)2,2,2-trifluoro-ethanol] it was “inactive”. In the case of `CCOC(=O)c1ccc(Cn2c(CC(F)(F)F)nc3cc(Cl)c(Cl)cc32)cc1` [Compound 150, 4-[5,6-Dichloro-2-(2,2,2-trifluoro-ethyl)-benzoimidazol-1-ylmethyl]-benzoic Acid Ethyl Ester] it was “active”; in that of `FC(c1nc2cc(Cl)c(Cl)cc2[nH]1)C(F)(F)F` (stereo not shown) [Compound 152, 5,6-Dichloro-2-(1,2,22-tetrafluoro-ethyl)-1H-benzoimidazole], “active”.

In the case of `Fc1cccc(Cn2c(CC(F)(F)F)nc3cc(Cl)c(Cl)cc32)c1` [Compound 119, 5,6-Dichloro-1-(3-fluoro-benzyl)-2-(2,2,2-trifluoro-ethyl)-1H-benzoimidazole], the outcome was active. For `FC(F)(F)Cc1nc2cc(Cl)c(Cl)cc2n1Cc1ccc(Br)cc1` [Compound 149, 1-(4-Bromo-benzyl)-5,6-dichloro-2-(2,2,2-trifluoro-ethyl)-1H-benzoimidazole] the value was “active”. For `COc1ccc(Cn2c(CC(F)(F)F)nc3cc(Cl)c(Cl)cc32)cc1` [Compound 147, 5,6-Dichloro-1-(4-methoxy-benzyl)-2-(2,2,2-trifluoro-ethyl)-1H-benzoimidazole] the value was “active”; for `CC/C(Cn1c(CC(F)(F)F)nc2cc(Cl)c(Cl)cc21)=N/O` [Compound 144, 1-[5,6-Dichloro-2-(2,2,2-trifluoro-ethyl)-benzoimidazol-1-yl]-butan-2-one Oxime], “active”.

Consider `FC(F)(F)Cc1nc2cc(Cl)c(Cl)cc2n1Cc1cccc(Cl)c1` [Compound 120, 5,6-Dichloro-1-(3-chloro-benzyl)-2-(2,2,2-trifluoro-ethyl)-1H-benzoimidazole], for which the result was active. In the case of `COc1ccc(C(=O)Cn2c(CC(F)(F)F)nc3cc(Cl)c(Cl)cc32)c(OC)c1` [Compound 77, 2-[5,6-Dichloro-2-(2,2,2-trifluoro-ethyl)-benzoimidazol-1-yl]-1-(2,4-dimethoxy-Phenyl)-ethanone] it was “inactive”; in that of `Cn1c(CC(C)(O)C(F)(F)F)nc2cc(Cl)c(Cl)cc21` (stereo not shown) [Compound 33], “active”; in that of `N#Cc1cc2nc(CC(F)(F)F)[nH]c2cc1C(F)(F)F` [Compound 69], “inactive”. For `FC(F)(F)Cc1nc2cc(Cl)c(Cl)cc2n1Cc1ccncc1` [Compound 108, 5,6-Dichloro-1-pyridin-4-ylmethyl-2-(2,2,2-trifluoro-ethyl)-1H-benzoimidazole] the value was “active”; for `CC(=O)Nc1ccc(SCC(C)(O)c2nc3cc(Cl)c(Cl)cc3n2C)cc1` (stereo not shown) [Compound 56, N-{4-[2-(5,6-Dichloro-1-methyl-1H-benzoimidazol-2-yl)-2-hydroxy-propylsulfanyl]-phenyl}-acetamide], “inactive”; for `Cc1cc2[nH]c(C(=O)C(F)(F)F)nc2cc1Cl` [Compound 160, 1-(5-Chloro-6-methyl-1H-benzoimidazol-2-yl-)2,2,2-trifluoro-ethanone], “active”.

For `FC(F)(F)C(F)(F)c1nc2cc(Cl)c(Cl)cc2[nH]1` [Compound 154, 5,6-Dichloro-2-(pentafluoroethyl)-1H-benzoimidazole], the outcome was inactive.

Turning to `O=[N+]([O-])c1cccc(Cn2c(CC(F)(F)F)nc3cc(Cl)c(Cl)cc32)c1` [Compound 139, 5,6-Dichloro-1-(3-nitro-benzyl)-2-(2,2,2-trifluoro-ethyl)-1H-benzoimidazole], the outcome was active. On to `FC(F)(F)Cc1nc2cc(Cl)c(C(F)(F)F)cc2[nH]1` [Compound 68], for which the outcome was active.

Take `O[C@@H](c1nc2cc(Cl)c(Cl)cc2[nH]1)C(F)(F)F` [Compound 83, (+)-1-(5,6-DiChloro-1H-benzoimidazol-2-yl-)2,2,2-trifluoro-ethanol]: the outcome was active. Take `O=C(Cn1c(CC(F)(F)F)nc2cc(Cl)c(Cl)cc21)c1ccc2c(c1)OCCO2` [Compound 104, 2-[5,6-Dichloro-2-(2,2,2-trifluoro-ethyl)-benzoimidazol-1-yl]-1-(2,3-dihydro-benzo[1,4]dioxin-6-yl)-ethanone]: the outcome was inactive. `Cn1c(C(C)(O)CC#N)nc2cc(Cl)c(Cl)cc21` (stereo not shown) [Compound 8]: the result was active.

`CCSCC(C)(O)c1nc2cc(Cl)c(Cl)cc2n1C` (stereo not shown) [Compound 25, 2-(5,6-Dichloro-1-methyl-1H-benzoimidazol-2-yl)-1-ethylsulfanyl-propan-2-ol]: the result was active. With `CCn1c(C(C)(O)CC#N)nc2cc(Cl)c(Cl)cc21` (stereo not shown) [Compound 16], the outcome was active. As for `CCCn1c(C(C)(O)C(F)(F)F)nc2cc(Cl)c(Cl)cc21` (stereo not shown) [Compound 14], the outcome was active. For `COC(c1nc2cc(Cl)c(Cl)cc2n1C)C(F)(F)F` (stereo not shown) [Compound 61] the value was “active”; for `OC(c1nc2cc(F)c(F)cc2[nH]1)C(F)(F)F` (stereo not shown) [Compound 113, 1-(5,6-Difluoro-1H-benzoimidazol-2-yl-)2,2,2-trifluoro-ethanol], “inactive”; for `Cn1c(CC(F)(F)F)nc2cc(Cl)c(Cl)cc21` [Compound 71, 5,6-Dichloro-1-methyl-2-(2,2,2-trifluoro-ethyl)-1H-benzoimidazole], “active”. For `CCOC(=O)Cn1c(CC(F)(F)F)nc2cc(Cl)c(Cl)cc21` [Compound 81, [5,6-Dichloro-2-(2,2,2-trifluoro-ethyl)-benzoimidazol-1-yl]-acetic Acid Ethyl Ester] the value was “inactive”. In the case of `N#Cc1ccc(OCCn2c(CC(F)(F)F)nc3cc(Cl)c(Cl)cc32)cc1` [Compound 136, 4-{2-[5,6-Dichloro-2-(2,2,2-trifluoro-ethyl)-benzoimidazol-1-yl]-ethoxy}-benzonitrile] it was “active”; in that of `FC(F)(F)Cc1nc2cc(Cl)c(Cl)cc2n1Cc1ccc(-n2cccn2)cc1` [Compound 131, 5,6-Dichloro-1-(4-pyrazol-1-yl-benzyl)-2-(2,2,2-trifluoro-ethyl)-1H-benzoimidazole], “inactive”; in that of `FC(F)(F)Cc1nc2cc(Cl)c(Cl)cc2n1Cc1cccc(OC(F)(F)F)c1` [Compound 134, 5,6-Dichloro-2-(2,2,2-trifluoro-ethyl)-1-(3-trifluoromethoxy-benzyl)-1H-benzoimidazole], “inactive”. With `CCn1c(C(C)(O)COC)nc2cc(Cl)c(Cl)cc21` (stereo not shown) [Compound 17], the result was inactive. In the case of `FC(F)(F)Cc1nc2cc(Cl)c(Cl)cc2n1CCOc1ccc(Cl)cc1` [Compound 124, 5,6-Dichloro-1-[2-(4-chloro-phenoxy)-ethyl]-2-(2,2,2-trifluoro-ethyl)-1H-benzoimidazole] it was “active”.

`COc1cccc(C(=O)Cn2c(CC(F)(F)F)nc3cc(Cl)c(Cl)cc32)c1` [Compound 86, 2-[5,6-Dichloro-2-(2,2,2-trifluoro-ethyl)-benzoimidazol-1-yl]-1-(3-methoxy-phenyl)-ethanone]: the result was inactive. In the case of `Fc1cccc(OCCn2c(CC(F)(F)F)nc3cc(Cl)c(Cl)cc32)c1` [Compound 123, 5,6-Dichloro-1-[2-(3-fluoro-phenoxy)-ethyl]-2-(2,2,2-trifluoro-ethyl)-1H-benzoimidazole] it was “inactive”; in that of `CCCCn1c(C(C)(O)C(F)(F)F)nc2cc(Cl)c(Cl)cc21` (stereo not shown) [Compound 15], “active”. In the case of `CCOC(c1nc2cc(Cl)c(Cl)cc2n1CC)C(F)(F)F` (stereo not shown) [Compound 62] it was “active”.

Turning to `O=C(Cn1c(CC(F)(F)F)nc2cc(Cl)c(Cl)cc21)c1ccc(Br)cc1` [Compound 79, 1-(4-Bromo-phenyl)-2-[5,6-dichloro-2-(2,2,2-trifluoro-ethyl)-benzoimidazol-1-yl]-ethanone], the result was inactive. For `Cc1cccc(Cn2c(CC(F)(F)F)nc3cc(Cl)c(Cl)cc32)c1` [Compound 95, 5,6-Dichloro-1-(3-methyl-benzyl)-2-(2,2,2-trifluoro-ethyl)-1H-benzoimidazole] the value was “inactive”; for `O=[N+]([O-])c1ccc(Cn2c(CC(F)(F)F)nc3cc(Cl)c(Cl)cc32)cc1` [Compound 105, 5,6-Dichloro-1-(4-nitro-benzyl)-2-(2,2,2-trifluoro-ethyl)-1H-benzoimidazole], “active”.
